Earlier results, collected in PubChem BioAssay AID1259409 (Chemical Carcinogenesis Research Information System (CCRIS), 2018).

Tested on: rodent chemically induced tumor inhibition, incidence and multiplicity
Experiment: CCRIS tumor inhibitor studies
Details: Promoter: NONE USED

## O=C1O[C@H]([C@@H](O)CO)C(O)=C1O
Carcinogen: N-METHYL-N-NITROSOUREA, 684-93-5, Dose [Inhibitor]: 1% IN 20% FAT DIET DAILY STARTING 2 WK BEFORE START OF CARCINOGEN TREATMENT AND CONTINUING FOR DURATION OF STUDY (STUDY, Route [Inhibitor]: ORAL, Species: RAT, Strain/Sex: F344/FEMALE, Target Tissue: Type of Lesion: MAMMARY GLAND: FIBROADENOMA, Dose [Carcinogen]: 2 MG 2/WK FOR 2 WK
  tumour outcome (control, treated, inhibition, significance): 25%, 38%, -52%, not significant
Carcinogen: N-NITROSOMORPHOLINE, 59-89-2, Dose [Inhibitor]: 22.7 G/KG OF DIET 5 D/WK FOR 2 YR STARTING SIMULTANEOUSLY WITH CARCINOGEN TREATMENT AT 8 WK OF AGE AND CONTINUING FOR DU, Route [Inhibitor]: ORAL, Species: RAT, Strain/Sex: MRC/MALE, Target Tissue: Type of Lesion: FORESTOMACH: SQUAMOUS CELL PAPILLOMA, SQUAMOUS CELL CARCINOMA, Dose [Carcinogen]: 0.15 G/L DRINKING WATER 5 D/WK FOR 2 YR
  tumour outcome (control, treated, inhibition, significance): 1/41 (2%), 4/47 (9%), -350%, not calculated
Carcinogen: N-NITROSOMORPHOLINE, 59-89-2, Dose [Inhibitor]: 22.7 G/KG OF DIET 5 D/WK FOR 2 YR STARTING SIMULTANEOUSLY WITH CARCINOGEN TREATMENT AT 8 WK OF AGE AND CONTINUING FOR DU, Route [Inhibitor]: ORAL, Species: RAT, Strain/Sex: MRC/MALE, Target Tissue: Type of Lesion: LIVER: KUPFFER CELL SARCOMA, Dose [Carcinogen]: 0.15 G/L DRINKING WATER 5 D/WK FOR 2 YR
  tumour outcome (control, treated, inhibition, significance): 28/41 (68%), 34/47 (72%), -6%, not calculated
Carcinogen: N-NITROSOMORPHOLINE, 59-89-2, Dose [Inhibitor]: 22.7 G/KG OF DIET 5 D/WK FOR 2 YR STARTING SIMULTANEOUSLY WITH CARCINOGEN TREATMENT AT 8 WK OF AGE AND CONTINUING FOR DU, Route [Inhibitor]: ORAL, Species: RAT, Strain/Sex: MRC/MALE, Target Tissue: Type of Lesion: LIVER: LIVER CELL CARCINOMA, Dose [Carcinogen]: 0.15 G/L DRINKING WATER 5 D/WK FOR 2 YR
  tumour outcome (control, treated, inhibition, significance): 17/41 (41%), 20/47 (43%), -5%, not calculated
Carcinogen: TRANS-5-AMINO-3-[2-(5-NITRO-2-FURYL)VINYL]-1,2,4-OXADIAZOLE;SQL8506, 28754-68-9, Carcinogen: TRANS-5-AMINO-3-[2-(5-NITRO-2-FURYL)VINYL]-1,2,4-OXADIAZOLE;SQL8506, 28754-68-9, Dose [Inhibitor]: 2 G/KG 16 HR BEFORE THE 1ST CARCINOGEN DOSE FOLLOWED BY ADDITIONAL DOSES IMMEDIATELY BEFORE EACH DOSE OF CARCINOGEN (STU, Route [Inhibitor]: INTRAPERITONEAL, Species: MOUSE, Strain/Sex: CD-1/FEMALE, Target Tissue: Type of Lesion: HEMATOPOIETIC SYSTEM: MYELOID LEUKEMIA, Dose [Carcinogen]: 1 G/KG 2/D FOR 5 D EVERY 4 WK FOR 3 COURSES OF TREATMENT
  tumour outcome (control, treated, inhibition, significance): 7/137 (5%), 3/45 (7%), -40%, not calculated
Carcinogen: TRANS-5-AMINO-3-[2-(5-NITRO-2-FURYL)VINYL]-1,2,4-OXADIAZOLE;SQL8506, 28754-68-9, Carcinogen: TRANS-5-AMINO-3-[2-(5-NITRO-2-FURYL)VINYL]-1,2,4-OXADIAZOLE;SQL8506, 28754-68-9, Dose [Inhibitor]: 2 G/KG 16 HR BEFORE THE 1ST CARCINOGEN DOSE FOLLOWED BY ADDITIONAL DOSES IMMEDIATELY BEFORE EACH DOSE OF CARCINOGEN (STU, Route [Inhibitor]: INTRAPERITONEAL, Species: MOUSE, Strain/Sex: CD-1/FEMALE, Target Tissue: Type of Lesion: LYMPHOID TISSUE: NONTHYMIC LYMPHOMA, Dose [Carcinogen]: 1 G/KG 2/D FOR 5 D EVERY 4 WK FOR 3 COURSES OF TREATMENT
  tumour outcome (control, treated, inhibition, significance): 8/137 (6%), 2/45 (4%), 33%, not calculated
Carcinogen: TRANS-5-AMINO-3-[2-(5-NITRO-2-FURYL)VINYL]-1,2,4-OXADIAZOLE;SQL8506, 28754-68-9, Carcinogen: TRANS-5-AMINO-3-[2-(5-NITRO-2-FURYL)VINYL]-1,2,4-OXADIAZOLE;SQL8506, 28754-68-9, Dose [Inhibitor]: 2 G/KG 16 HR BEFORE THE 1ST CARCINOGEN DOSE FOLLOWED BY ADDITIONAL DOSES IMMEDIATELY BEFORE EACH DOSE OF CARCINOGEN (STU, Route [Inhibitor]: INTRAPERITONEAL, Species: MOUSE, Strain/Sex: CD-1/FEMALE, Target Tissue: Type of Lesion: LYMPHOID TISSUE: THYMIC LYMPHOMA, Dose [Carcinogen]: 1 G/KG 2/D FOR 5 D EVERY 4 WK FOR 3 COURSES OF TREATMENT
  tumour outcome (control, treated, inhibition, significance): 22/137 (16%), 7/45 (16%), 0%, not calculated
Carcinogen: TRANS-5-AMINO-3-[2-(5-NITRO-2-FURYL)VINYL]-1,2,4-OXADIAZOLE;SQL8506, 28754-68-9, Carcinogen: TRANS-5-AMINO-3-[2-(5-NITRO-2-FURYL)VINYL]-1,2,4-OXADIAZOLE;SQL8506, 28754-68-9, Dose [Inhibitor]: 2 G/KG 16 HR BEFORE THE 1ST CARCINOGEN DOSE FOLLOWED BY ADDITIONAL DOSES IMMEDIATELY BEFORE EACH DOSE OF CARCINOGEN (STU, Route [Inhibitor]: INTRAPERITONEAL, Species: MOUSE, Strain/Sex: CD-1/FEMALE, Target Tissue: Type of Lesion: STOMACH: SQUAMOUS CARCINOMA, Dose [Carcinogen]: 1 G/KG 2/D FOR 5 D EVERY 4 WK FOR 3 COURSES OF TREATMENT
  tumour outcome (control, treated, inhibition, significance): 60/137 (44%), 14/45 (31%), 30%, not calculated
Carcinogen: UV IRRADIATION, Dose [Inhibitor]: 0.3% IN DIET BEGINNING 10 D PRIOR TO CARCINOGEN DOSE AND CONTINUING FOR DURATION OF STUDY (STUDY DURATION: 27 WK), Route [Inhibitor]: ORAL, Species: MOUSE, Strain/Sex: SKH/HRL/FEMALE, Target Tissue: Type of Lesion: SKIN: CARCINOMA OR PAPILLOMA, Dose [Carcinogen]: 1.13 J/CM2/D INCREASED EVERY 2 WK TO A FINAL VALUE OF 1.97 J/CM2/D 5 D/WK FOR 15 WK (TOTAL EXPOSURE: 135 J/CM2)
  tumour outcome (control, treated, inhibition, significance): 23/44 (52%), 24/39 (62%), -19%, not calculated
Carcinogen: UV IRRADIATION, Dose [Inhibitor]: 5% IN DIET BEGINNING 10 D PRIOR TO CARCINOGEN DOSE AND CONTINUING FOR DURATION OF STUDY (STUDY DURATION: 27 WK), Route [Inhibitor]: ORAL, Species: MOUSE, Strain/Sex: SKH/HRL/FEMALE, Target Tissue: Type of Lesion: SKIN: PAPILLOMA OR CARCINOMA, Dose [Carcinogen]: 1.13 J/CM2/D INCREASED EVERY 2 WK TO A FINAL VALUE OF 1.97 J/CM2/D 5 D/WK FOR 15 WK (TOTAL EXPOSURE: 135 J/CM2)
  tumour outcome (control, treated, inhibition, significance): 23/44 (52%), 15/38 (39%), 25%, not calculated
Carcinogen: UV IRRADIATION, Dose [Inhibitor]: 10% IN DIET BEGINNING 10 D PRIOR TO CARCINOGEN DOSE AND CONTINUING FOR DURATION OF STUDY (STUDY DURATION: 27 WK), Route [Inhibitor]: ORAL, Species: MOUSE, Strain/Sex: SKH/HRL/FEMALE, Target Tissue: Type of Lesion: SKIN: PAPILLOMA OR CARCINOMA, Dose [Carcinogen]: 1.13 J/CM2/D INCREASED EVERY 2 WK TO A FINAL VALUE OF 1.97 J/CM2/D 5 D/WK FOR 15 WK (TOTAL EXPOSURE: 135 J/CM2)
  tumour outcome (control, treated, inhibition, significance): 23/44 (52%), 14/40 (35%), 33%, not calculated
Dose [Inhibitor]: 22.7 G/KG OF DIET 5 D/WK FOR 2 YR STARTING SIMULTANEOUSLY WITH CARCINOGEN TREATMENT AT 8 WK OF AGE AND CONTINUING FOR DU, Route [Inhibitor]: ORAL, Species: RAT, Strain/Sex: MRC/MALE, Target Tissue: Type of Lesion: FORESTOMACH: SQUAMOUS CELL PAPILLOMA, SQUAMOUS CELL CARCINOMA
  outcome: 0/37 (0%), 21/39 (54%), not calculated
Dose [Inhibitor]: 22.7 G/KG OF DIET 5 D/WK FOR 2 YR STARTING SIMULTANEOUSLY WITH CARCINOGEN TREATMENT AT 8 WK OF AGE AND CONTINUING FOR DU, Route [Inhibitor]: ORAL, Species: RAT, Strain/Sex: MRC/MALE, Target Tissue: Type of Lesion: LIVER: KUPFFER CELL SARCOMA
  tumour outcome (control, treated, inhibition, significance): 13/37 (35%), 7/39 (18%), 49%, not significant
Dose [Inhibitor]: 22.7 G/KG OF DIET 5 D/WK FOR 2 YR STARTING SIMULTANEOUSLY WITH CARCINOGEN TREATMENT AT 8 WK OF AGE AND CONTINUING FOR DU, Route [Inhibitor]: ORAL, Species: RAT, Strain/Sex: MRC/MALE, Target Tissue: Type of Lesion: LIVER: LIVER CELL CARCINOMA
  tumour outcome (control, treated, inhibition, significance): 12/37 (32%), 10/39 (26%), 19%, not significant
